# Source: patent publication US5578643A, “Protective prostaglandins for use in conjunction with chemotherapeutic agents” (Loyola University of Chicago, priority 1994, dated 1996)
# Key:
# hair medullary cells = experiment: Number of hair medullary cells four days after a single dose of chemotherapeutic agent, with or without misoprostol; assay type: in vivo, CF1 mice; conditions: 4 days after single IP dose: DOX 0.3, CTX 1, VP-16-213 0.3, ARA-C 8, HU 10, 5 FU 1.0, Methotrexate 0.2, Bleomycin 0.05, Mitomycin C 0.01, Cisplatin 0.25, Carboplatin 1.0, Taxol 0.6 mg; untreated control 51.4 ± 0.6
# Procedure: FIG. 13 is a representation of photographs of shafts of hair showing a single line of medullary cells in control mice (Panel A) and in mice 4 days after they were given a single dose of 0.3 mg of VP-16-213 (Panel B).
# Number of Hair Medullary Cells as a Measure of Protection from Injury caused by Chemotherapeutic Agents.
# The shafts of hair in CF1 mice contain usually a single line of about 50±1 medullary cells. These cells are very sensitive to cytotoxic agents (see Potten, C. S., Geng, L., and Taylor, P., Hair Medullary Cell Counts: a Simple and Sensitive Indicator of Radiation Exposure. Int. J Radiat. Biol., 57:13-21, 1990). Single doses of cytotoxic chemotherapeutic agents greatly reduce the number of medullary cells which reach a nadir at 4 days after administration of the agent. This cell system has been used for the evaluation of misoprostol-induced protection from several chemotherapeutic agents.
# CF1 mice had hair from an area of their rump plucked to induce anagen growth as described in Example 2 above. […] In separate groups, mice received misoprostol (40 μg/average 30 g mouse) either subcutaneously or applied topically 2 hours before each of the chemotherapeutic agents listed above. Untreated controls were used since it has been previously determined that water, or 2% EtOH in water, or phosphate buffer at pH=6.8 (the vehicles for the all agents used) had no influence on the cell counts compared to untreated controls. Twenty-five hairs from each animal of each group were dissected from Feulgen stained samples taken from the mice 4 days after treatment.
# The number of medullary cells was averaged (n=4) for each treatment group and the results for all chemotherapeutic agents tested to date are presented in Table I.
# [1] = system: mice given graded doses of doxorubicin (DOX); experiment: DOX dose response: dose killing 50% of the mice within 15 days, alone or after PG or WR-2721; assay type: in vivo; conditions: for effect on DOX dose necessary to kill 50% of mice: 10 μg of 16,16-dimethyl PGE2 or 25 μg of SC-44932, 2 hours before graded doses of doxorubicin, n=8, FIG. 6
# Procedure: The open triangle is data of a group of 10 mice given WR-2721, 30 minutes before administration of 0.75 mg of doxorubicin. (The lines are computer fit spline curves through the data; n=24 per data point on each curve).
# (The lines are computer fit spline curves through the data; n=8 per data point for each of the PG-treated groups and n=24 for the data points of mice treated only with doxorubicin).
# It was observed that all acute deaths due to DOX treatment alone occurred before day 15 following DOX administration. Subsequently, the parameter of death within 15 days was used to investigate the DOX dose response administered IP alone or 2 hours after 40 μg of misoprostol was given subcutaneously (sc). In this study, a dose of about 0.5 mg of DOX/average 30 gram mouse, killed 50% of the DOX treated mice (see FIG. 5).
# A comparison of PG-induced protection was made to that of protection by WR-2721; an agent reported to protect from some chemotherapeutic agents. […] Two other PGs representing different structural prostaglandins than misoprostol were also investigated for their effectiveness in protecting mice from mortality resulting from administration of graded doses of DOX.
# kidney = conditions: bolus infusions of cisplatin; Glover et al.; cited from earlier work
# humans = conditions: WR-2721 in large protective doses; cited from earlier work
# [2] = system: white blood cells (WBCs) in the peripheral circulation; experiment: WBC counts and differential counts in peripheral blood of DOX treated mice; assay type: in vivo
# Procedure: FIG. 7 is a graph illustrating the protective effect of misoprostol (given 2 hours before doxorubicin) on WBC counts compared to the effect of doxorubicin alone on WBC counts as function of time (in days). (The numbers 1 and 2 are duplicate studies.)
# Death within 15 days of DOX treatment alone is most likely associated with bone marrow injury. […] DOX, therefore, appears to not only reduce the total WBC, but has a particularly marked effect on lymphocytes.
# small intestine = experiment: Intestinal microcolonies in DOX treated mice, with or without PGE1; assay type: in vivo; conditions: FIG. 12
# Excerpt: (Data are the means of 4 mice±1 SEM.)
# (§1) The hair counts from skin fields of control (open bar), DOX (striped bar) and misoprostol+DOX (filled bar) treated mice are shown in FIG. 9. […] Misoprostol given before DOX increased the hair count to 213±7.8. […] Since prostaglandin receptors are not evenly distributed, protection may not be evenly distributed. PGE1 is associated with the skin (hair follicles) but not with the gut. The ability of PGE1 to protect the skin (hair follicles) and the small intestine from cell injury caused by doxorubicin was tested. […] A single dose of 0.5 mg of doxorubicin reduced this count to 43±8. Administration of 10 μg of PGE1 prior to administration of doxorubicin provided protection as indicated by the increase in the number of hairs to 111±12. […] More evidence is presented in Example 3.
# skin (hair follicles) = experiment: Hair count after a single dose of doxorubicin, with or without PGE1; assay type: in vivo, mice; conditions: FIG. 11
# Procedure: FIG. 11 is a graph illustrating the number of hairs per 4.16 sq. mm of skin area in control mice, in mice that received 0.5 mg of doxorubicin or in mice that received 10 μg of PGE1 2 hours before receiving 0.5 mg of doxorubicin. (Data are the means of 6 mice (2 field/mouse)±SEM.)
# as §1
# hair follicles = experiment: Hair count / hair loss (alopecia) caused by chemotherapeutic agents, 5 daily treatments; assay type: in vivo, mice; conditions: 0.1 mg DOX daily for 5 days IP; controls 248±5; FIG. 9
# Procedure: Panel C is a representation of a photomicrograph of an animal given 40 μg of misoprostol, 2 hours before the 0.1 mg daily dose of doxorubicin given each day for 5 days.
# (Data are the means of 6 mice (2 fields/mouse)±1 SEM.)
# Amount of Hair Loss as a Measure of PG-induced Protection from Alopecia caused by Chemotherapeutic Agents.
# One of the side effects of chemotherapy in cancer patients is hair loss or alopecia. Studies were conducted to measure a possible protective effect of PGs from alopecia caused by chemotherapeutic agents. […] The hairs on the rumps of mice (n=4/group) were plucked to induce a growth or anagen cycle within hair follicles which continues for about 18 days. […] Control groups (n=4) received no treatment or misoprostol alone.
# [3] = system: mice given doxorubicin (DOX); experiment: Survival of mice (percent survival over 15 days) after doxorubicin, with or without prior prostaglandin; conditions: 0.75 mg of DOX IP alone; n=16; FIG. 3
# Procedure: (§2) FIG. 1 is a graph illustrating percent survival of mice over 15 days as a function of the time interval (in hours) between the administration of misoprostol and the subsequent administration of doxorubicin. (The two curves represent duplicate experiments; 12 animals per experiment.)
# (§3) FIG. 2 is a graph illustrating the percent survival of mice over 15 days following the administration of 0.5 mg of doxorubicin (open circles) and mice given 40 μg of misoprostol 2 hours before administration of 0.5 mg of doxorubicin (filled circles). (N=16 for each group).
# (§4) FIG. 3 is a graph illustrating the percent survival of mice over 15 days following the administration of 0.75 mg of doxorubicin (open circles) and mice given 40 μg of misoprostol 2 hours before administration of 0.75 mg of doxorubicin (filled circles). (N=16 for each group).
# (§5) Mortality of mice is a measure of PG-induced protection from death due to severe normal tissue injury inflicted by chemotherapy agents.
# (§6) This assay was accomplished by injecting intraperitoneally (IP) separate groups of mice with a range of doses of chemotherapeutic agents. […] In some groups of mice, longevity was recorded by plotting the number of animals remaining alive (percent survival) versus time following the administration of the chemotherapeutic agent.
# (§7) PG-induced protection from the toxic chemotherapeutic agents was measured by subcutaneous (SC) injection of the PG at various times prior to or after the IP administration of the chemotherapeutic agent. […] The time interval was varied from 15 minutes to 5 hours. The two curves represent two separate experiments with 20 mice in each experiment. The "0" time point is the percentage of mice that survived 15 days after administration of doxorubicin alone.
# [4] = as above; conditions: mouse, in vivo, ip, 0.5 mg
# Procedure: as §2, §3, §4, §5, §6, §7
compound,measurement,setting,value
bleomycin,"Number of Medullar Cells ± 1 SEM, chemotherapeutic agent IP alone",hair medullary cells,30.4 ± 1.4
"N.N.[Cl][Pt][Cl] [Cisplatin, cisplatin]","Number of Medullar Cells ± 1 SEM, chemotherapeutic agent IP alone",hair medullary cells,25.9 ± 1.5
"NCCCNCCSP(=O)(O)O [WR-2721, S-2-(3-aminopropylamino) ethylphosphorothioxic acid]",protection of mice from DOX by WR-2721,"[1]; WR-2721 30 minutes before 0.75 mg of doxorubicin, n=10, FIG. 5",did not protect mice (n=10) from DOX treatment
same,kidney protection from cisplatin injury,kidney,protect the kidney from injury caused by bolus infusions of cisplatin
same,side effects in humans,humans,"causes hypotension, nausea, and vomiting in humans"
"COc1cccc2c1C(=O)c1c(O)c3c(c(O)c1C2=O)C[C@@](O)(C(=O)CO)C[C@@H]3O[C@H]1C[C@H](N)[C@H](O)[C@H](C)O1 [DOX, doxorubicin]","Number of Medullar Cells ± 1 SEM, chemotherapeutic agent IP alone",hair medullary cells,18.3 ± 1.7
same,"dose of DOX that killed 50% of the mice, DOX alone","[1]; IP, death within 15 days, FIG. 5",about 0.5 mg of DOX/average 30 gram mouse
same,time of all acute deaths due to DOX treatment alone (before day),[1]; following DOX administration,< 15 days
same,"WBCs in the peripheral circulation, DOX alone","[2]; 0.5 mg DOX/30 gram mouse, FIG. 7",sharply reduced over 7 days following treatment
same,"percentage of lymphocytes, DOX alone","[2]; 0.5 mg of DOX, differential counts, control mice about 85%",less than 10%
same,"number of intestinal colonies per circumference, DOX alone",small intestine; 0.5 mg of doxorubicin,6±0.3 intestinal colonies per circumference
same,"number of hairs, doxorubicin alone","skin (hair follicles); single dose of 0.5 mg doxorubicin, control 237±5",43±8 hairs per 4.16 sq. mm
same,"number of hairs, DOX alone",hair follicles,144±3 hairs per 4.42 sq. mm
same,"mortality, DOX alone",[3],All of the mice were dead by six days
same,survival at 360 h,[4],~25%
"CCCCC(C)(C)[C@H](O)/C=C/[C@H]1[C@H](O)CC(=O)[C@@H]1C/C=C\CCCC(=O)O [16,16-dimethyl PGE2, 16,16-dimethyl prostaglandin E2]",effect on DOX dose necessary to kill 50% of mice,[1],increased the DOX dose necessary to kill 50% of a population (n=8) of mice
"N.N.O=C([O-])C1(C(=O)[O-])CCC1.[Pt+2] [Carboplatin, carboplatin]","Number of Medullar Cells ± 1 SEM, chemotherapeutic agent IP alone",hair medullary cells,37.8 ± 2.4
CCCCC[C@H](O)/C=C/[C@H]1[C@H](O)CC(=O)[C@@H]1CCCCCCC(=O)O [PGE1],"number of intestinal colonies per circumference, PGE1 + DOX",small intestine; 10 μg of PGE1 (b62 prints .rho.g) 2 hours before 0.5 mg doxorubicin,did not change
same,"number of hairs, PGE1 + doxorubicin",skin (hair follicles); 10 μg of PGE1 2 hours before 0.5 mg doxorubicin,111±12 hairs per 4.16 sq. mm
"O=P1(N(CCCl)CCCl)NCCCO1 (stereo not drawn) [CTX, cytoxan]","Number of Medullar Cells ± 1 SEM, chemotherapeutic agent IP alone",hair medullary cells,22.1 ± 1.9
"C/C=C/C=C/[C@](C)(O)C/C=C/C1C(O)CC(=O)C1CC/C=C\CCC(=O)OC (mixture of isomers) [SC-44932, (±) methyl, 7-[3α-hydroxy-2β-(4R-hydroxy-4-methyl-1E, 5E,7E-nonatrienyl)-5-oxo-1α-cyclopentyl]-4-Z-heptenoate]",effect on DOX dose necessary to kill 50% of mice,[1],increased the DOX dose necessary to kill 50% of a population (n=8) of mice
